# Patent publication EP4763845A1, “CYANO AROMATIC RING DERIVATIVE AND PHARMACEUTICAL USE THEREOF” (Haisco Pharmaceutical Group Co., Ltd., priority 2023, dated 2025)
# Molecular target: T1, AR protein (Homo sapiens, UniProt P10275)
# T1 construct: VCap is a human prostate cancer cell line purchased from ATCC; host or cells: VCaP human prostate cancer cells
# T1 sequence (P10275 1-920): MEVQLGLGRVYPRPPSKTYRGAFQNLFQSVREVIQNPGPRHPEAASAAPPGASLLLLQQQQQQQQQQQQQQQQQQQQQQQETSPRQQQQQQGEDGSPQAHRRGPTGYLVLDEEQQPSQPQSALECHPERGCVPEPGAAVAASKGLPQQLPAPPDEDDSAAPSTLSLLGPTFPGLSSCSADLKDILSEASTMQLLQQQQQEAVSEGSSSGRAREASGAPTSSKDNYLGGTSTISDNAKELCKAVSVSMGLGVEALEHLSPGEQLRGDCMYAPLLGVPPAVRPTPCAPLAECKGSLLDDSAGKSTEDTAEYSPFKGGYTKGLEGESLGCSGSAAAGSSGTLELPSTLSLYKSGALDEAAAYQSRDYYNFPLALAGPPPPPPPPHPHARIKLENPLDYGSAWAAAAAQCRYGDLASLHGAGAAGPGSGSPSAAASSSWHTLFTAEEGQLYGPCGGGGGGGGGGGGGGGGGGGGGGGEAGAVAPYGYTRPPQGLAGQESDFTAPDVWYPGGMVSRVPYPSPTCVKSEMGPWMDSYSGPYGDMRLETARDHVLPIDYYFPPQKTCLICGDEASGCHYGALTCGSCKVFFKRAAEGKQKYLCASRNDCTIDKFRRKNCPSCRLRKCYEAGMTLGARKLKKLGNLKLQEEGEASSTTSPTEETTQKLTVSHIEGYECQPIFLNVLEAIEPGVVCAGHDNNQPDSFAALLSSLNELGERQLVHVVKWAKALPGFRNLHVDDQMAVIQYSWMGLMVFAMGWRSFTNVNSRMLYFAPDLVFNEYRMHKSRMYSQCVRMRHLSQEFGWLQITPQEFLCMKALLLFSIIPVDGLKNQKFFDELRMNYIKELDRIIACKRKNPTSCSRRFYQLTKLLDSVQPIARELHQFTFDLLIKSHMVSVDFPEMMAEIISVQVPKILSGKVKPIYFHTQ
# Test: Detection of AR degradation in VCaP cells (automated western blot)
# Type: cell-based
# Settings: AR protein in VCaP cells, concentration of 30 nM, 24 hours
# Description: VCap is a human prostate cancer cell line purchased from ATCC and cultured under the following conditions: DMEM + 10% FBS + 1% penicillin-streptomycin solution. The cells were cultured in a 37°C, 5% CO2 incubator. The cells were seeded in a 6-well plate, with 5 × 10^5 cells/well. After seeding, compounds at various concentrations were added, and the plate was incubated for 24 hours in the 37°C, 5% CO2 incubator. Following incubation, the cells were harvested and RIPA lysis buffer (beyotime, Cat. P0013B) was added. The cells were lysed on ice for 15 minutes and centrifuged at 12,000 rpm at 4°C for 10 minutes. The supernatant protein samples were collected and the protein was quantified using the BCA kit (Beyotime, Cat. P0009). Then the protein was diluted to 0.25 mg/mL. The expressions of AR (CST, Cat.5153S) and the internal reference β-actin (CST, Cat. 3700S) were detected using a fully automated western blot quantitative analyser (Proteinsimple). Using the "Compass for SW" software, the relative peak area of AR was calculated when the internal reference area was 10,000. The proportion of AR relative to the solvent control group at various drug concentrations was calculated according to Equation (1), where ARtreat represents the relative peak area of the compound-treated group, and ARsolvent represents the relative peak area of the solvent control group. The processed data obtained from Equation (1) were analysed using GraphPad Prism 8.3.0 software, and the DC50 value was calculated using a four-parameter nonlinear regression model. The degradation rate at a specified concentration was determined as 100-AR%. AR% = ARtreat/ ARsolvent × 100% [formula]
row,Structure (SMILES),Degradation rate %
1,CC1(C)[C@H](NC(=O)c2ccc(N3CCC(CN4CCN5c6cc(F)c(C(=O)N[C@H]7CCC(=O)NC7=O)cc6CC[C@@H]5C4)CC3)cc2)C(C)(C)[C@H]1Oc1ccc(C#N)c(C2CC2)c1 [Compound 119],>70%
2,COc1cc(O[C@H]2C(C)(C)[C@H](NC(=O)c3ccc(N4CCC(CN5CCN6c7ncc(C8CCC(=O)NC8=O)cc7CC[C@@H]6C5)CC4)cc3)C2(C)C)ccc1C#N (some centres unmarked) [Compound 93],>70%
3,CC1(C)[C@H](NC(=O)c2ccc(N3CCC(CN4CCN5c6cc(F)c(C7CCC(=O)NC7=O)cc6CC[C@@H]5C4)CC3)cc2)C(C)(C)[C@H]1Oc1ccc(C#N)c(C2CC2)c1 (some centres unmarked) [Compound 117],>70%
4,COc1cc(O[C@H]2C(C)(C)[C@H](NC(=O)c3ccc(N4CCC5(CC4)CC(N4CCN6c7cc(F)c(C8CCC(=O)NC8=O)cc7CC[C@H]6C4)C5)cc3)C2(C)C)ccc1C#N (some centres unmarked) [Trifluoroacetate of compound 121],>70%

# Same assay, conditions: degradation of AR protein in VCaP cells, 24 hours incubation; read-out: DC50
row,Structure (SMILES),DC50
1,CC1(C)[C@H](NC(=O)c2ccc(N3CCC(CN4CCN5c6cc(F)c(N7CCC(=O)NC7=O)cc6CC[C@@H]5C4)CC3)cc2)C(C)(C)[C@H]1Oc1ccc(C#N)c(Cl)c1 [Compound 50],< 100 nM
2,COc1cc(O[C@H]2C(C)(C)[C@H](NC(=O)c3ccc(N4CCC(N5CCN6c7cc(F)c(C(=O)N[C@H]8CCC(=O)NC8=O)cc7CC[C@H]6C5)CC4)cc3)C2(C)C)ccc1C#N [Trifluoroacetate of compound 24],< 100 nM
3,COc1cc(O[C@H]2C(C)(C)[C@H](NC(=O)c3ccc(N4CCC5(CC4)CC(CN4CCN6c7cc(F)c(C8CCC(=O)NC8=O)cc7CC[C@H]6C4)C5)cc3)C2(C)C)ccc1C#N (some centres unmarked) [Trifluoroacetate of compound 10],< 100 nM
4,COc1cc(O[C@H]2C(C)(C)[C@H](NC(=O)c3ccc(N4CCC5(CC4)CC(CN4CCN6c7cc(F)c(C(=O)N[C@H]8CCC(=O)NC8=O)cc7CC[C@@H]6C4)C5)cc3)C2(C)C)ccc1C#N [Trifluoroacetate of compound 5],< 100 nM
5,COc1cc(O[C@H]2C(C)(C)[C@H](NC(=O)c3ccc(N4CCC(N5CCN6c7cc(F)c(C8CCC(=O)NC8=O)cc7CC[C@H]6C5)CC4)cc3)C2(C)C)ccc1C#N (some centres unmarked) [Trifluoroacetate of compound 21],< 100 nM
6,COc1cc(O[C@H]2C(C)(C)[C@H](NC(=O)c3ccc(N4CCC(CN5CCN6c7cc(F)c(N8CCC(=O)NC8=O)cc7CC[C@H]6C5)CC4)nn3)C2(C)C)ccc1C#N [Trifluoroacetate of compound 63],< 100 nM
7,COc1cc(O[C@H]2C(C)(C)[C@H](NC(=O)c3ccc(N4CCC(N5CCN6c7cc(F)c(C8CCC(=O)NC8=O)cc7CC[C@@H]6C5)CC4)cc3)C2(C)C)ccc1C#N (some centres unmarked) [Trifluoroacetate of compound 20],< 100 nM
8,COc1cc(O[C@H]2C(C)(C)[C@H](NC(=O)c3ccc(N4CCC5(CC4)CC(N4CCN6c7cc(F)c(C(=O)N[C@H]8CCC(=O)NC8=O)cc7CC[C@H]6C4)C5)cc3)C2(C)C)ccc1C#N [Trifluoroacetate of compound 18],< 100 nM
9,[2H]C([2H])([2H])Oc1cc(O[C@H]2C(C)(C)[C@H](NC(=O)c3ccc(N4CCC5(CC4)CC(CN4CCN6c7cc(F)c(C8CCC(=O)NC8=O)cc7CC[C@@H]6C4)C5)cc3)C2(C)C)ccc1C#N (some centres unmarked) [Compound 42],< 100 nM
10,Cc1cc(O[C@H]2C(C)(C)[C@H](NC(=O)c3ccc(N4CCC(CN5CCN6c7cc(F)c(N8CCC(=O)NC8=O)cc7CC[C@H]6C5)CC4)cc3)C2(C)C)cc(C)c1C#N [Compound 80],< 100 nM
11,CC1(C)[C@H](NC(=O)c2ccc(N3CCC(CN4CCN5c6cc(F)c(N7CCC(=O)NC7=O)cc6CC[C@H]5C4)CC3)cc2)C(C)(C)[C@H]1Oc1ccc(C#N)c(Cl)c1 [Compound 51],< 100 nM
12,COc1cc(O[C@H]2C(C)(C)[C@H](NC(=O)c3ccc(N4CCC(CN5CCN6c7ncc(C8CCC(=O)NC8=O)cc7CC[C@H]6C5)CC4)cc3)C2(C)C)ccc1C#N (some centres unmarked) [Compound 83],< 100 nM
13,COc1cc(O[C@H]2C(C)(C)[C@H](NC(=O)c3ccc(N4CCC5(CC4)CC(CN4CCN6c7cc(F)c(C8CCC(=O)NC8=O)cc7CC[C@@H]6C4)C5)cc3)C2(C)C)ccc1C#N (some centres unmarked) [Trifluoroacetate of compound 9],< 100 nM
14,Cc1cc(O[C@H]2C(C)(C)[C@H](NC(=O)c3ccc(N4CCC(CN5CCN6c7cc(F)c(C8CCC(=O)NC8=O)cc7CC[C@H]6C5)CC4)cc3)C2(C)C)cc(C)c1C#N (some centres unmarked) [Compound 78],< 100 nM
15,[2H]C([2H])([2H])Oc1cc(O[C@H]2C(C)(C)[C@H](NC(=O)c3ccc(N4CCC5(CC4)CC(CN4CCN6c7cc(F)c(N8CCC(=O)NC8=O)cc7CC[C@@H]6C4)C5)cc3)C2(C)C)ccc1C#N [Trifluoroacetate of compound 44],< 100 nM
16,CC1(C)[C@H](NC(=O)c2ccc(N3CCC4(CC3)CC(CN3CCN5c6cc(F)c(N7CCC(=O)NC7=O)cc6CC[C@@H]5C3)C4)cc2)C(C)(C)[C@H]1Oc1ccc(C#N)c(Cl)c1 [Compound 56],< 100 nM
17,CC1(C)[C@H](NC(=O)c2ccc(N3CCC4(CC3)CC(CN3CCN5c6cc(F)c(C7CCC(=O)NC7=O)cc6CC[C@@H]5C3)C4)cc2)C(C)(C)[C@H]1Oc1ccc(C#N)c(Cl)c1 (some centres unmarked) [Compound 54],< 100 nM
18,COc1cc(O[C@H]2C(C)(C)[C@H](NC(=O)c3ccc(N4CCC(CN5CCN6c7cc(F)c(N8CCC(=O)NC8=O)cc7CC[C@@H]6C5)CC4)nn3)C2(C)C)ccc1C#N [Trifluoroacetate of compound 62],< 100 nM
19,[2H]C([2H])([2H])Oc1cc(O[C@H]2C(C)(C)[C@H](NC(=O)c3ccc(N4CCC5(CC4)CC(CN4CCN6c7cc(F)c(C8CCC(=O)NC8=O)cc7CC[C@H]6C4)C5)cc3)C2(C)C)ccc1C#N (some centres unmarked) [Compound 43],< 100 nM
20,COc1cc(O[C@H]2C(C)(C)[C@H](NC(=O)c3ccc(N4CCC(N5CCN6c7cc(F)c(C(=O)N[C@H]8CCC(=O)NC8=O)cc7CC[C@@H]6C5)CC4)cc3)C2(C)C)ccc1C#N [Trifluoroacetate of compound 22],< 100 nM
21,COc1cc(O[C@H]2C(C)(C)[C@H](NC(=O)c3ccc(N4CCC(CN5CCN6c7cc(F)c(C(=O)N[C@@H]8CCC(=O)NC8=O)cc7CC[C@H]6C5)CC4)cc3)C2(C)C)ccc1C#N [Compound 14],< 100 nM
22,CC1(C)[C@H](NC(=O)c2ccc(N3CCC4(CC3)CC(CN3CCN5c6cc(F)c(C7CCC(=O)NC7=O)cc6CC[C@H]5C3)C4)cc2)C(C)(C)[C@H]1Oc1ccc(C#N)c(Cl)c1 (some centres unmarked) [Compound 55],< 100 nM
23,COc1cc(O[C@H]2C(C)(C)[C@H](NC(=O)c3ccc(N4CCC(CN5CCN6c7ccc(N8CCC(=O)NC8=O)cc7CCC6C5)CC4)cc3)C2(C)C)ccc1C#N (some centres unmarked) [Compound 15],< 100 nM
24,CC1(C)[C@H](NC(=O)c2ccc(N3CCC4(CC3)CC(CN3CCN5c6cc(F)c(C7CCC(=O)NC7=O)cc6CC[C@@H]5C3)C4)cc2)C(C)(C)[C@H]1Oc1ccc(C#N)c2ncccc12 (some centres unmarked) [Compound 72],< 100 nM
25,COc1cc(O[C@H]2C(C)(C)[C@H](NC(=O)c3ccc(N4CCC5(CC4)CC(N4CCN6c7cc(F)c(N8CCC(=O)NC8=O)cc7CC[C@H]6C4)C5)cc3)C2(C)C)ccc1C#N [Trifluoroacetate of compound 84],< 100 nM
26,Cc1cc(O[C@H]2C(C)(C)[C@H](NC(=O)c3ccc(N4CCC(CN5CCN6c7cc(F)c(N8CCC(=O)NC8=O)cc7CC[C@@H]6C5)CC4)cc3)C2(C)C)cc(C)c1C#N [Compound 82],< 100 nM
27,CC1(C)[C@H](NC(=O)c2ccc(N3CCC(CN4CCN5c6cc(F)c(C7CCC(=O)NC7=O)cc6CC[C@H]5C4)CC3)cc2)C(C)(C)[C@H]1Oc1ccc(C#N)c(Cl)c1 (some centres unmarked) [Compound 49],< 100 nM
28,CC1(C)[C@H](NC(=O)c2ccc(N3CCC4(CC3)CC(CN3CCN5c6cc(F)c(C(=O)N[C@H]7CCC(=O)NC7=O)cc6CC[C@@H]5C3)C4)cc2)C(C)(C)[C@H]1Oc1ccc(C#N)c(Cl)c1 [Compound 58],< 100 nM
